Reference: patent publication US20090203661A1, “Betulinic acid, derivatives and analogs thereof and uses therefor” (priority 2006, published 2009)
Like-named read-outs stand apart in the source and are kept apart here.

How the values were obtained:
PPARγ [1] = experiment: PPARγ transactivation (PPARγ-GAL4/pGAL4, PPRE3-luc) in SW480 cells; format: cell-based; conditions: for transactivation, PPARγ-GAL4/pGAL4 and PPRE3-luc: SW480, 2.5-10 μM; for effect of PPARγ antagonist T007 on induced activities: SW480, cotreatment with T007
Procedure: (§1) Cells were seeded onto the 12-well plates and 0.4 μg of GAL4-Luc, 0.04 μg of β-GAL, 0.04 μg of GAL4DBD-PPARγ, and 0.4 μg of p21-luc(FL) containing −2325 to +8 insert, 0.4 μg of p21-luc (−124) containing −124 to +8 insert and 0.4 μg of p21-LUC (−60) containing −60 to +8 insert were transfected using LipofectAMINE reagent (Invitrogen) following the manufacturer's protocol. Cells were treated either with vehicle or respective compounds suspended in complete medium after 6 hr of transfection. Cell lysate is extracted after 20-22 hr by adding 100 μl of 1× reporter lysis buffer per well and 30 μl of this extract is used to quantitate the luciferase activity using Lumicount (Perkin-Elmer Life and Analytical Sciences). Each experiment is done in triplicate and the results are normalized to the β-GAL activity.

SW480 cells [2] = experiment: KLF4 mRNA (RT-PCR) in SW480 cells; format: cell-based, human
Procedure: (§2) SW480 and HT29 colon cancer cells were treated either with vehicle (DMSO) or indicated compounds and after 24 hr total RNA was extracted using RNeasy Mini kit (Qiagen, Inc., Valencia, Calif.). RNA concentration was measured by UV 260:280 nm absorption ratio and 2 μg RNA was used to synthesize cDNA using Reverse Transcription System (Promega). PCR conditions were as follows: initial denaturation at 94° C. (1 min) followed by 28 cycles of denaturation for 30 s at 94° C., annealing for 60 s at 55° C. and extension at 72° C. for 60 s and a final extension step at 72° C. for 5 min. The mRNA levels were normalized using GAPDH as an internal housekeeping gene. Primers obtained from IDT and used for amplification are as follows: KLF4 (sense 5′-CTATGGCAGGGAGTCCGCTCC-3′ (SEQ ID NO: 1); antisense 5′-ATGACCGACGGGCTGCCGTAC-3′ (SEQ ID NO: 2)) and GAPDH (sense 5′-ACGGATTTGGTCGTATTGGGCG-3′ (SEQ ID NO: 3); antisense 5′-CTCCTGGAAGATGGTGATGG-3′ (SEQ ID NO: 4). PCR products were electrophoresed on 1% agarose gels containing ethidium bromide and visualized under UV transillumination.

3T3-L1 adipocytes = experiment: 3T3-L1 differentiation and Oil Red O staining; format: cell-based; conditions: 0.25 μM
Procedure: 3T3-L1 preadipocytes were cultured on poly-lysine-coated coverslips with DMEM and 10% FBS at 5% CO2 in 24-well plates. At 2 days post-confluence, cells were incubated with fresh media supplemented with 3-isobutyl-1-methylxanthine (0.5 mM), dexamethasone (1 μM), insulin (1.7 μM), and indicated compounds (0.25 μM). After 48 hr, cells were changed to fresh media and treated with DMSO or indicated compounds for 5 days. Cells without any treatment for the entire 7 days were used as control. The cells were then fixed with 10% formalin. Fixed cells were washed with 60% isopropanol and stained with filtered 60% Oil Red O in deionized water. After staining, cells were washed with water and photographed.

HT-29 cells = experiment: KLF4 mRNA (RT-PCR) in HT-29 cells; format: cell-based, human; conditions: for KLF4 mRNA levels: HT-29; for effect of T007 on induction of KLF4 mRNA: HT-29, cotreatment with T007
Procedure: as §2

PPARγ [3] = experiment: PPARγ transactivation (PPARγ-GAL4/pGAL4, PPRE3-luc) in Panc-28 cells; format: cell-based
Procedure: as §1

SW480 cells [4] = experiment: Cell proliferation assay, SW480 cells; format: cell-based, human; conditions: read-out: IC50 values, inhibition of growth
Procedure: SW480, HT-29 and HCT-15 human colon cancer cells were provided by Dr. Stan Hamilton (M. D. Anderson Cancer Center (Houston, Tex.). Panc-28 human pancreatic cancer cells and 3T3-L1 pre-adipocytes were obtained from American Type Culture Collection (Manassas, Va.). SW480, HT-29 and Panc-28 cells were maintained in Dulbecco's modified/Ham's F-12 (Sigma-Aldrich, St Louis, Mo.) with phenol red supplemented with 0.22% sodium bicarbonate, 0.011% sodium pyruvate, 5% fetal bovine serum, and 10 mL/L 100× antibiotic antimycotic solution (Sigma). HCT-15 cells were maintained in RPMI 1640 (Sigma) supplemented with 0.22% sodium bicarbonate, 0.011% sodium pyruvate, 0.45% glucose, 0.24% HEPES, 10% fetal bovine serum, and 10 mL/L of 100× antibiotic antimycotic solution (Sigma). Cells were maintained at 37° C. in the presence of 5% CO2.
This assay is performed in 12-well tissue culture plates at the concentration of 2×10^4 cells per well, using DMEM/Ham's F-12 media containing 2.5% charcoal stripped FBS. The cells were counted on the initial day using a Z1 cell counter (Beckman Coulter, Fullerton, Calif.) and then were treated either with vehicle (DMSO) or the indicated triterpenoid compounds, each sample in triplicate. Every 48 hr, fresh medium was added along with the indicated compounds. The count of the cells was taken after 2, 4 and 6 days. The results are expressed as means±S.E for each set of triplicate.

Panc-28 cells = experiment: Western blot of p21, p27, cyclin D1 in Panc-28 cells; format: cell-based, human; conditions: for effect of T007 on induction of p21 protein: 5 μM compound plus 10 μM T007; for cyclin D1 expression / p27 expression: Panc-28; for p21 protein expression: Panc-28, 24 hr
Procedure: SW480, HT-29, HCT-15 and Panc-28 (3×10^5) colon cancer cells were seeded in 6-well tissue culture plates in DMEM/Ham's F-12 medium containing 2.5% charcoal-stripped FBS. Protein is extracted from the cells treated either with vehicle or indicated compounds suspended for 24 hr except for caveolin-1 protein which was done for 72 hr. Samples were extracted in high salt buffer [50 mmol/L HEPES, 500 mmol/L NaCl, 1.5 mmol/L MgCl2, 1 mmol/L EGTA, 10% glycerol, and 1% Triton X-100 (pH 7.5), and 5 μL/mL protease inhibitor cocktail (Sigma-Aldrich)]. Samples were incubated at 100° C. for 2 min, separated on either 10% or 12% SDS-PAGE gels and then transferred to polyvinylidene difluoride membrane (PVDF; Bio-Rad, Hercules, Calif.). The PVDF membrane was blocked in 5% TBST-Blotto (10 mM Tris HCl, 150 mM NaCl, pH 8.0, 0.05% Triton X-100, and 5% nonfat dry milk) for about 30 min and was then incubated in fresh 5% TBST-Blotto with 1:1000 for caveolin-1 (Santa Cruz Biotechnology, Santa Cruz, Calif.), 1:1000 for p21 (BD Pharmingen, Frank lakes, NJ) and 1:10000 for β-actin (Sigma) primary antibody overnight with gentle shaking at 4° C. After washing with TBST for 10 min, the membrane was incubated with respective secondary antibody (1:5000) (Santa cruz, Calif.) in 5% TBST-Blotto for 3 hr. The membrane is then washed with TBST for 10 min, incubated with chemiluminiscence reagent from Perkin Elmer for one min and then exposed to Kodak X-OMAT AR autoradiography film (Eastman Kodak, Rochester, N.Y.).

| IC50 (SW480 cells [4]) | IC50 (SW480 cells [4]; Homo sapiens) | Compound | transactivation, PPARγ-GAL4/pGAL4 and PPRE3-luc (PPARγ [1]) | effect of PPARγ antagonist T007 on induced activities (PPARγ [1]) | KLF4 expression (SW480 cells [2]) | Oil Red O staining (fat droplets) (3T3-L1 adipocytes) | KLF4 mRNA levels (HT-29 cells) | effect of T007 on induction of KLF4 mRNA (HT-29 cells) | induction, PPARγ-GAL4/pGAL4 (PPARγ [3]; Panc-28) | induction, PPRE3-luc (PPARγ [3]; Panc-28, data not shown) | effect of T007 on induction of p21 protein (Panc-28 cells) | cyclin D1 expression (Panc-28 cells) | p27 expression (Panc-28 cells) | p21 protein expression (Panc-28 cells) | luciferase activity, PPARγ-GAL4/pGAL4 and PPRE3-luc (PPARγ [3]; Panc-28) | effect of T007 on induced luciferase activity (PPARγ [3]; Panc-28, cotreatment with T007) |
| --- | --- | --- | --- | --- | --- | --- | --- | --- | --- | --- | --- | --- | --- | --- | --- | --- |
| 1 to 2.5 µM | – | COC(=O)C12CCC(C(C)C)C1C1CCC3C4(C)C=C(C#N)C(=O)C(C)(C)C4CCC3(C)C1(C)CC2 (stereo not shown) [CN-BA-Me, Methyl 2-cyano-lup-1-en-3-oxo-20-oate] | induced transactivation | inhibited by T007 | did not induce KLF4 expression | induce Oil Red O staining | induced KLF4 mRNA levels | did not inhibit | minimal induction | no induction | significantly inhibited | downregulation of cyclin D1 | induction of p27 | induce p21 protein expression | – | – |
| 1 µM | – | CC(C)C1CCC2(C(=O)O)CCC3(C)C(CCC4C5(C)C=C(C#N)C(=O)C(C)(C)C5CCC43C)C12 (stereo not shown) [CN-BA] | induced transactivation | inhibited by T007 | did not induce KLF4 expression | induce Oil Red O staining | induced KLF4 mRNA levels | did not inhibit | – | – | significantly inhibited | downregulation of cyclin D1 | induction of p27 | induce p21 protein expression | induced luciferase activity | inhibited |
| – | 1 to 5 µM | C=C(C)[C@@H]1CC[C@]2(C(=O)O)CC[C@]3(C)[C@H](CC[C@@H]4[C@@]5(C)CC[C@H](O)C(C)(C)[C@@H]5CC[C@]43C)[C@@H]12 [betulinic acid, Betulinic acid] | inactive | – | – | – | – | did not inhibit | – | – | not inhibited | – | – | – | inactive | – |
